Laboratory results from patent US20150283212A1, “ORAL CALCITONIN COMPOSITIONS AND APPLICATIONS THEREOF” (Novartis AG, priority 2007, published 2015).

Experiment: Pharmacokinetics of orally administered salmon calcitonin combined with 5-CNAC
Format: in vivo
Description: An oral form of calcitonin would improve patient acceptance and facilitate improved patient compliance by providing a more acceptable, alternative delivery route for peptide therapy. […] Salmon calcitonin appears rapidly in the plasma following oral administration, with median tmax at about 0.25 hr post-dose. Following tmax the plasma concentration fell rapidly. […] Plasma sCT concentrations increased as sCT doses increased. However, with high variability in available data, dose-proportional increase in AUC could not be confirmed.

CC(C)C[C@H](NC(=O)[C@H](CCCCN)NC(=O)CNC(=O)[C@H](CC(C)C)NC(=O)[C@@H](NC(=O)[C@@H]1CSSC[C@H](N)C(=O)N[C@@H](CO)C(=O)N[C@@H](CC(N)=O)C(=O)N[C@@H](CC(C)C)C(=O)N[C@@H](CO)C(=O)N[C@@H]([C@@H](C)O)C(=O)N1)C(C)C)C(=O)N[C@@H](CO)C(=O)N[C@@H](CCC(N)=O)C(=O)N[C@@H](CCC(=O)O)C(=O)N[C@@H](CC(C)C)C(=O)N[C@@H](Cc1c[nH]cn1)C(=O)N[C@@H](CCCCN)C(=O)N[C@@H](CC(C)C)C(=O)N[C@@H](CCC(N)=O)C(=O)N[C@H](C(=O)N[C@@H](Cc1ccc(O)cc1)C(=O)N1CCC[C@H]1C(=O)N[C@@H](CCCNC(=N)N)C(=O)N[C@H](C(=O)N[C@@H](CC(N)=O)C(=O)N[C@H](C(=O)NCC(=O)N[C@@H](CO)C(=O)NCC(=O)N[C@H](C(=O)N1CCC[C@H]1C(N)=O)[C@@H](C)O)[C@@H](C)O)[C@@H](C)O)[C@@H](C)O [salmon calcitonin]
effect of food on bioavailability of sCT (administered with food): markedly reduces | accumulation (AUC after multiple-dose vs single-dose) (oral): No significant accumulation | gastrointestinal (GI) absorption of the sCT (oral, combination with 5-CNAC, rodents, monkeys and humans): marked increase | Tmax (plasma, following oral administration, post-dose, read-out: median tmax): ~15 min
